Experimental data from patent publication US11041013B2, “Methods of preparation and composition of peptide constructs useful for treatment of rheumatoid arthritis” (Cel-Sci Corporation, priority 2008, dated 2021).

Experiments:
[1] = test system: collagen induced arthritis (CIA); assay: CIA model, histopathology of right rear feet; assay type: in vivo, DBA/1J mice; conditions: for disease pathology compared statistically with untreated CIA mice: Enbrel: 14 days after cessation of therapy, 3×CEL-2000: 3 weeks after immunization; for histopathology: bone resorption / histopathology: cartilage damage / histopathology: inflammation / histopathology: pannus: hind paw and ankle, Enbrel for 14 days, CEL-2000 100 nmol on days 0 and 7
Source text: The fourth study is for the CIA model CEL-2000 therapeutic vaccination; histopathology (study 4.4 see FIG. 4 and legend). At the termination of the experiments the animals were euthanized, the right rear feet were collected and stored individually in buffered formalin to be fixed in preparation for paraffin embedding, sectioning, staining and analysis. The feet in buffered formalin were sent for processing, reading and plotting of the data (representative sections from mid group specimens were photographed).
The pathologists scored the feet for disease pathology in 4 areas: inflammation, pannus, cartilage and bone. FIG. 4 is a summary plot of the analysis performed cores of the 4 areas from the following groups: Control no disease; CIA disease: CIA Disease Enbrel daily for 14 days continued for 2 more weeks before termination: CEL-2000 and CEL-2001 groups (vaccinated on day 0 and 7) from study 1 (FIG. 1) and from study 2 (FIG. 2) 1× and 3×CEL-2000 vaccinated groups on day 0 and 7.

[2] = test system: vaccine peptides, collagen or citrulline or components used to make vaccines; conditions: mouse, in vivo
Procedure: The fifth study is for the CIA-model CEL-2000 vaccination serum antibodies (study 4.5). Antibody production to the vaccine peptides, collagen or citrulline or components used to make vaccines were evaluated in mouse sera from the previous two sets of studies. As expected, all sera recognized the bovine collagen molecule used to induce the disease. Neither the dose, amount of vaccine, nor timing of vaccination seemed to affect the titer or isotype. […] No antibodies were detected with reactivity to the citrulline using a citrulline fibrin peptide substrate in the ELISA. […] (data not shown) L.E.A.P.S. conjugates serum cytokine studies

[3] = test system: collagen induced arthritis (CIA); assay: CIA model, arthritis index (AI) score; assay type: in vivo, DBA/1J mice; conditions: for progression of disease, as indicated by AI scores: two treatments of 33 nmoles in ICFA adjuvant, Enbrel 3 mg/kG daily for the first 14 days; for effectiveness in the murine CIA model of RA relative to SEQ ID NO. 99: studies 1-5 and FIGS. 1-4
Procedure: The following five studies are of CEL-2000 therapeutic vaccine for collagen induced arthritis (CIA) where the first step was to identify a good animal model for testing the vaccine, which is the collagen induced arthritis (CIA) model in young (6-7) week old male DBA/1J mice. These mice received 2 injections of bovine collagen the first in complete Freund's adjuvant (CFA) on day 0 and then 3 weeks later on day 21, in Incomplete CFA. After the second collagen injection, the mice were evaluated daily for any joint swelling or redness. Each of the paws was scored on a 4 point scale (arthritis index Arthritis Index (AI)) with respect to the number of digits with symptoms and the thickness of the paw measured, at least 3-4 times a week. Each mouse was weighed weekly.
The first study is the CIA model CEL-2000 therapeutic vaccination conjugate specificity effect on AI scores (study 4.1 see FIG. 1 and legend). When significant disease is noted, usually about day 28, the mice are grouped (n=8) with a range of scores between 1 and 6 and group mean of 2.5 to 3. At this point the therapy begins according to protocol. Controls include groups with induced disease but no therapy and groups of healthy mice without induced disease. A therapy control of Enbrel (3 mg/kG daily) was included. In this study (FIG. 1), mice received two treatments of 33 nmoles (for CEL-2000 equivalent to 4.8 mg/kG) of CEL-2000, (the same dose as used for the L.E.A.P.S. HSV vaccines), or other conjugates of the same collagen peptide used in CEL-2000 using the same ICBLs as in the HSV or EAM systems for comparison using a GMP grade ICFA adjuvant.
AI scores are evaluations on a scale of 0=normal to 4=maximal effect of joint thickening, redness, immobilization of joints in a digit or total paw for each of the 4 paws in the CIA mouse model of rheumatoid arthritis.
Treatment started when group score was 3.5. This was done to have all groups starting with same score, as opposed to the range between […] seen in the first study. The same dose of Enbrel as was used in the first study but was given every other day for the entire study period of 28 days.

cytokines = assay: Serum cytokines after immunization (Ray Biotech protein microarrays); assay type: in vivo, A/J mice; conditions: unmodified J ICBL emulsified in Seppic ISA51
Procedure: The outcome of the immune response to vaccines is likely at least in part determined by the cytokines elicited by the immunization. Cytokines elicited by immunization of A/J mice with either the J, JgD or JH peptides emulsified in Seppic ISA51 were evaluated from serum obtained on days 3, 10 and 24 after immunization using Ray Biotech protein microarrays. […] IL12 is produced by DCs and macrophages and promotes the development of Th1 responses which are characterized by production of IL2 and IFN-γ. […] L.E.A.P.S. conjugates ex vivo studies

Substance: Enbrel [reference compound]
- disease pathology compared statistically with untreated CIA mice [1]: not statistically different from untreated CIA mice
- histopathology: bone resorption [1]: minimal
- histopathology: cartilage damage [1]: mild
- histopathology: inflammation [1]: mild
- histopathology: pannus [1]: minimal
- antibodies to Enbrel in sera [2]: antibodies could be detected
- progression of disease, as indicated by AI scores ([3]; study 4.1): slightly more effective than the vaccine

Substance: DLLKNGERIEKVEGGGTGGKPGIAGFKGEQGPKGEP (Completely synthesized peptide construct) [CEL-2000, peptide J combined with the human type II collagen peptide 254-273]
- duration of effect versus Enbrel ([1]; 2 vaccinations at 100 nmol, 28 day period): more lasting effect than the multiple Enbrel treatments
- protection by all 4 histopathology criteria (group ranking) ([1]; 3× (100 nmol) on days 0 and 7, FIG. 4): best protected group (least diseased) by all 4 criteria
- disease pathology compared statistically with untreated CIA mice [1]: statistically had less disease pathology
- histopathology: bone resorption [1]: less bone resorption in fewer digit joints
- histopathology: cartilage damage [1]: minimal
- histopathology: inflammation [1]: mild
- histopathology: pannus [1]: minimal
- AI scores, reduction compared with other conjugates ([3]; study 4.1, 33 nmoles, versus CEL-2001 or CEL-2002): reduced to a greater extent than was seen with other conjugates
- progression of disease, as indicated by AI scores ([3]; study 4.1): limited the progression of disease
- progression of disease over the experimental period ([3]; study 4.2, 100 nmol dose (3× treatment) on days 0 and 7): appeared to limit the progression of disease throughout the experimental period
- progression of arthritis disease compared with Enbrel ([3]; study 4.2, 2 doses of 33 or 100 nmol subcutaneously on days 0 and 7 or 0 and 14, Enbrel every other day for 28 days): at least as good as those of mice treated with Enbrel
- Joint thickening, redness, immobilization of joints in a digit or total paw ([3]; study 4.2, each of the 4 paws): reduced
- progression of disease, as indicated by reduced AI scores ([3]; study 4.2, treatment started when group score was 3.5): limited the progression of disease

Substance: DLLKNGERIEKVEGGG [J]
- most remarkable change in cytokine levels upon immunization (cytokines): reduction in IL10 levels

Substance: DGQEEKAGVVSTGLI-GGGGS-TGGKPGIAGFKGEQGPKGEP (DGQEEKAGVVSTGLIGGGGSTGGKPGIAGFKGEQGPKGEP; Completely synthesized peptide construct) [CEL-2001]
- effectiveness in the murine CIA model of RA relative to SEQ ID NO. 99 [3]: less effective

Substance: TGGKPGIAGFKGEQGPKGEP ((254)..(273) Type II Collagen; listed as Homo sapiens) [CEL-2002]
- effectiveness in the murine CIA model of RA relative to SEQ ID NO. 99 [3]: less effective
